One experiment has as its target NbICS (Nicotiana benthamiana, UniProt A0A286T8R2). In words: in planta SA accumulation with co-expressed IPL. Format: cell-based. As to conditions: endogenous chorismate, N. benthamiana leaves, ICS to IPL 1:19.
Another experiment has as its target T1, NtICS (Nicotiana tabacum, UniProt A0A286T848).
T1 sequence (A0A286T848 48-584): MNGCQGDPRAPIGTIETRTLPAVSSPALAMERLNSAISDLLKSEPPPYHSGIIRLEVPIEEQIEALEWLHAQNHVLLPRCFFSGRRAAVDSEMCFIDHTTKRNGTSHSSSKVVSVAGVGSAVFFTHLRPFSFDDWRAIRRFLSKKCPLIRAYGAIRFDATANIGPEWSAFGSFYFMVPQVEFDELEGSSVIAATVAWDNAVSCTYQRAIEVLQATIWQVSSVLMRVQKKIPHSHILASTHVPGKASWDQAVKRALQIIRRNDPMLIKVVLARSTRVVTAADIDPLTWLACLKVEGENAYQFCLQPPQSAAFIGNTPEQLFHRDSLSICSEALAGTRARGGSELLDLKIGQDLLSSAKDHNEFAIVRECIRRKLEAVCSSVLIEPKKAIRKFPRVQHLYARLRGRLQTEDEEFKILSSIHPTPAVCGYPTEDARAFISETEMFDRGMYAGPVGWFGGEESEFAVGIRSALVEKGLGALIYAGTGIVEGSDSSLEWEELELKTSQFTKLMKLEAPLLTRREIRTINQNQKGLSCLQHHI
In words: in planta SA accumulation with co-expressed IPL. The format is cell-based. As to conditions: endogenous chorismate, N. benthamiana leaves, ICS to IPL 1:19.

The target in experiment [1] is T2, AtICS1 (Arabidopsis thaliana, UniProt Q9S7H8).
T2 construct: gene ICS1; putative chloroplast transit peptide removed, N-terminal His6 (pET28a), E. coli SHuffle T7, crude desalted protein fraction; also C-terminal 3xFLAG in N. benthamiana leaves
T2 sequence (Q9S7H8 46-569): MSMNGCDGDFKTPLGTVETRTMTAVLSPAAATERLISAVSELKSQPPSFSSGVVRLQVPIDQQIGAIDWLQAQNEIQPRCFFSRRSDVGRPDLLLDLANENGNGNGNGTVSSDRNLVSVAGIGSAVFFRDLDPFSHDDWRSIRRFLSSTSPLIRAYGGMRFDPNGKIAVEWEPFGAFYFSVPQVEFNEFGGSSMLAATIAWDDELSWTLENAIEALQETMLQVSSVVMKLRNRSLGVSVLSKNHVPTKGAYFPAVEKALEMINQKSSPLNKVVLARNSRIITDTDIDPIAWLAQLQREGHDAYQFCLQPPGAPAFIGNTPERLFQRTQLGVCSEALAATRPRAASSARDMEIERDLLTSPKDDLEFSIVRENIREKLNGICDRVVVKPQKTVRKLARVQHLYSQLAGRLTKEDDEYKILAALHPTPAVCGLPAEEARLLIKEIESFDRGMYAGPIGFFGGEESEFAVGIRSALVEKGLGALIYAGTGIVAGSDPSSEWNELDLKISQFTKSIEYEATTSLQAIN
Put plainly: isochorismate converted into SA, SA measured. Format: biochemical. The note with it: 1 mM barium chorismate, 10 mM MgCl2, pH 7.5, 30 C, 1 h; crude E. coli fraction.

The next experiment deals with T3, OsICS (Oryza sativa, UniProt A0A286T796).
T3 construct: own transit peptide replaced by that of AtICS1 or of tobacco Rubisco small subunit; N. benthamiana leaves, P. fluorescens IPL PmsB as coupling enzyme
T3 sequence (A0A286T796 46-581): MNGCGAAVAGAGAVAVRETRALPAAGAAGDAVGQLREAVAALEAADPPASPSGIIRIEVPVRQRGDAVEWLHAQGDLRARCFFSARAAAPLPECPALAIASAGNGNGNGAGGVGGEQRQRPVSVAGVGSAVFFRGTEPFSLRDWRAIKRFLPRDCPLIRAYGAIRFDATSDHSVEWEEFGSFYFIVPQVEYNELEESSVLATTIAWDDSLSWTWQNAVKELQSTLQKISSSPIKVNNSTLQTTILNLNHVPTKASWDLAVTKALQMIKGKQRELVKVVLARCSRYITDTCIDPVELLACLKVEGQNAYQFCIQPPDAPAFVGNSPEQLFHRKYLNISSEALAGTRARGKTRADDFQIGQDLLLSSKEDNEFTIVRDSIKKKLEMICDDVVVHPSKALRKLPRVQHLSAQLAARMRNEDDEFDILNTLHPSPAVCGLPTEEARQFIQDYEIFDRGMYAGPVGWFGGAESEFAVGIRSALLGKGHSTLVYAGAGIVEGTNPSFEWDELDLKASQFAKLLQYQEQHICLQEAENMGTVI
In words: in planta SA accumulation with co-expressed IPL. The format is cell-based. As to conditions: endogenous chorismate, N. benthamiana leaves, transit peptide replaced.

The next experiment has as its target T4, EntC (Escherichia coli, UniProt P0AEJ2).
T4 construct: N-terminal His6 (pET28a), E. coli SHuffle T7, crude desalted protein fraction; also with tobacco Rubisco small subunit transit peptide and 3xFLAG in N. benthamiana
T4 sequence (P0AEJ2 1-391): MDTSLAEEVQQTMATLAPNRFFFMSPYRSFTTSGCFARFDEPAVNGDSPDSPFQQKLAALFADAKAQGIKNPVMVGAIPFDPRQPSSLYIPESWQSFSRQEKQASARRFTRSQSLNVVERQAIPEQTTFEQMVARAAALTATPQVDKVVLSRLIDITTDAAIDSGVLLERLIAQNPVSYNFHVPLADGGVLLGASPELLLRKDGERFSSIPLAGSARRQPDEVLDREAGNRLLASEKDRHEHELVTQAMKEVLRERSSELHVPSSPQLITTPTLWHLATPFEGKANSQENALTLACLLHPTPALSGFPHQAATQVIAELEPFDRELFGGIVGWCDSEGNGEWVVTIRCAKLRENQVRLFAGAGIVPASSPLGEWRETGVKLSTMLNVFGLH
Put plainly: isochorismate converted into SA, SA measured. Format: biochemical. As to conditions: 1 mM barium chorismate, 10 mM MgCl2, pH 7.5, 30 C, 1 h; crude E. coli fraction; linearity not confirmed for EntC in E. coli.

In experiment [2] the target is T5, AtICS1 (Arabidopsis thaliana, UniProt Q9S7H8, T531A).
T5 construct: gene ICS1; putative chloroplast transit peptide removed, N-terminal His6 (pET28a), E. coli SHuffle T7, crude desalted protein fraction; also C-terminal 3xFLAG in N. benthamiana leaves
T5 sequence (Q9S7H8 46-569 T531A): as the sequence (Q9S7H8 46-569) above, with T486A counted along it
Put plainly: isochorismate converted into SA, SA measured. As to conditions: 1 mM barium chorismate, 10 mM MgCl2, pH 7.5, 30 C, 1 h; crude E. coli fraction. Format: biochemical.

Sequence of NbICS (A0A286T8R2 53-590): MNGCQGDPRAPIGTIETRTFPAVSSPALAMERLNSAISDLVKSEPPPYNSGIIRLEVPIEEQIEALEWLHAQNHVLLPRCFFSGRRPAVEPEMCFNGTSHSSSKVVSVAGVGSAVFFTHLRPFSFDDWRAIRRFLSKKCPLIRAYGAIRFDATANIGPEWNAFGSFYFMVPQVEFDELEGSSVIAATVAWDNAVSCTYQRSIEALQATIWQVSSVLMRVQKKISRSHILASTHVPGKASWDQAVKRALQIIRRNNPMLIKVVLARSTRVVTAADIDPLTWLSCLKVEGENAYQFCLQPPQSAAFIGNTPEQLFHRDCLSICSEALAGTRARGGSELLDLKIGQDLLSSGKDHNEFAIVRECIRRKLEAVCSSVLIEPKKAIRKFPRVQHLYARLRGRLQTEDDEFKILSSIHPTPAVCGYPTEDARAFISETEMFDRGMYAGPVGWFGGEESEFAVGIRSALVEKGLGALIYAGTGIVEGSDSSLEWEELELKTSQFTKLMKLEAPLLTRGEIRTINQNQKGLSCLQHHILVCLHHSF

On to `C=C(O[C@@H]1C=C(C(=O)O)C=C[C@H]1O)C(=O)O` [chorismate], for which the SA level entry on NbICS is given as “expression of NtICS or NbICS with IPL resulted in significant increases in the levels of SA”; at NtICS, “expression of NtICS or NbICS with IPL resulted in significant increases in the levels of SA”; on OsICS, “OsICS with TP^AtICS1 or TP^SS showed low but significant levels of ICS activity in planta”. In addition, the ICS activity entry on AtICS1 [1] is “AtICS1 and EntC showed activity that was much higher than the empty vector control”; at EntC, “AtICS1 and EntC showed activity that was much higher than the empty vector control”; against AtICS1 [2] it was “The T531A mutant showed the lowest activity compared with the S537T and I550A mutants”.

(Values after paper PMC5843753, “Comparative analysis of plant isochorismate synthases reveals structural mechanisms underlying their distinct biochemical properties” (Bioscience Reports, 2018).)
